These results are taken from ChEMBL document CHEMBL4619763 (J Nat Prod, 2020).

For data set [1], the system named is Rattus norvegicus. The data set can be described thus: Diuretic activity in normotensive Wistar rat assessed as urinary chloride excretion at 3 mg/kg, po administered via gavage after 8 hrs (reference value: 135.10 to 143.70 mmol/L). It counts as functional.
In data set [2] the test system is Rattus norvegicus. The data set can be described thus: Diuretic activity in normotensive Wistar rat assessed as urinary calcium excretion at 3 mg/kg, po administered via gavage after 8 hrs (reference value: 5.93 to 6.87 mg/dl). Format: functional.
For data set [3], the system named is Rattus norvegicus. Description: Diuretic activity in normotensive Wistar rat assessed as urine pH at 3 mg/kg, po administered via gavage after 8 hrs (reference value: 6.14 to 6.21). Format: functional.
Data set [4] has as its system Rattus norvegicus. Description: Diuretic activity in normotensive Wistar rat assessed as urine conductivity at 3 mg/kg, po administered via gavage after 8 hrs (reference value: 19.54 +/- 0.98 mS/cm). It counts as functional.
For data set [5], the system named is Rattus norvegicus. Description: Diuretic activity in normotensive Wistar rat assessed as urinary sodium excretion at 3 mg/kg, po administered via gavage after 8 hrs (reference value: 61.82 to 80.81 mmol/L). It counts as functional.
The test system of data set [6] is Rattus norvegicus. Description: Diuretic activity in normotensive Wistar rat assessed as urine pH at 20 mg/kg, po administered via gavage after 8 hrs (reference value: 6.14 to 6.21). Format: functional.
Data set [7] has as its system Rattus norvegicus. Description: Diuretic activity in spontaneous hypertensive Wistar rat assessed as increase in urinary sodium excretion at 10 mg/kg, po administered via gavage for 7 days. Format: functional, organism-based.
Data set [8] has as its system Rattus norvegicus. Description: Diuretic activity in spontaneous hypertensive Wistar rat assessed as increase in urinary chloride excretion at 10 mg/kg, po administered via gavage for 7 days. Format: functional, organism-based.
For data set [9], the system named is Rattus norvegicus. The data set can be described thus: Diuretic activity in normotensive Wistar rat assessed as increase in urinary chloride excretion at 10 mg/kg, po administered via gavage for 7 days. Format: functional, organism-based.
The subject of data set [10] is Rattus norvegicus. Description: Diuretic activity in normotensive Wistar rat assessed as increase in urinary sodium excretion at 10 mg/kg, po administered via gavage for 7 days. It counts as functional, organism-based.
Data set [11] has as its system Rattus norvegicus. Description: Anti-urolithic activity in spontaneous hypertensive Wistar rats assessed as reduction in CaOx crystal formation in cumulative urine at 10 mg/kg, po administered via gavage in presence of sodium oxalate by Neubauer counting chamber method relative to control. Format: functional. On the set-up: scale not given: the % may be the effect or the level left.

Data set [12] deals with Rattus norvegicus. The data set can be described thus: Diuretic activity in normotensive Wistar rat assessed as increase in urine volume at 10 mg/kg, po administered via gavage for 7 days. Format: functional, organism-based.
Data set [13] concerns Rattus norvegicus. The data set can be described thus: In vivo antioxidant activity in Wistar rat model of hypertension-induced oxidative stress assessed as reduction in nitrite level in renal tissue at 10 mg/kg, po administered via gavage for 7 days by Griess reagent based assay. It counts as functional, organism-based.
In data set [14] the test system is Rattus norvegicus. Description: Diuretic activity in spontaneous hypertensive Wistar rat assessed as increase in urine volume at 10 mg/kg, po administered via gavage for 7 days. It counts as functional, organism-based.
Data set [15] deals with Rattus norvegicus. Description: Renal protective activity in spontaneous hypertensive Wistar rat assessed as reduction in hypertension-induced glomerular size at 10 mg/kg, po administered via gavage for 7 days by hematoxylin and eosin staining based microscopic analysis. It counts as functional, organism-based.
In data set [16] the test system is Rattus norvegicus. The data set can be described thus: Renal protective activity in spontaneous hypertensive Wistar rat assessed as reduction in hypertension-induced Bowman's capsule thickening at 10 mg/kg, po administered via gavage for 7 days by hematoxylin and eosin staining based microscopic analysis. It counts as functional, organism-based.
Data set [17] has as its system Rattus norvegicus. The data set can be described thus: Diuretic activity in spontaneous hypertensive Wistar rat assessed as decrease in urinary calcium excretion at 10 mg/kg, po administered via gavage for 7 days. Format: functional, organism-based.
In data set [18] the test system is Rattus norvegicus. Description: Diuretic activity in normotensive Wistar rat assessed as increase in urinary potassium excretion at 10 mg/kg, po administered via gavage for 7 days. Format: ADME, organism-based. To be noted: in vivo, 168 h.
Data set [19] deals with Rattus norvegicus. The data set can be described thus: Diuretic activity in spontaneous hypertensive Wistar rat assessed as increase in urinary potassium excretion at 10 mg/kg, po administered via gavage for 7 days. Format: ADME, organism-based. Conditions: in vivo, 168 h.
The test system of data set [20] is Rattus norvegicus. Description: Diuretic activity in normotensive Wistar rat assessed as urinary chloride excretion at 10 mg/kg, po administered via gavage after 8 hrs (reference value: 135.10 to 143.70 mmol/L). Format: functional.
The subject of data set [21] is Rattus norvegicus. Description: Diuretic activity in normotensive Wistar rat assessed as urinary potassium excretion at 10 mg/kg, po administered via gavage after 8 hrs (reference value: 22.39 to 24.21 mmol/L). It counts as ADME, organism-based. To be noted: in vivo.
In data set [22] the test system is Rattus norvegicus. The data set can be described thus: Anti-urolithic activity in normotensive Wistar rats assessed as reduction in CaOx crystal formation in cumulative urine at 10 mg/kg, po administered via gavage in presence of sodium oxalate by Neubauer counting chamber method relative to control. More on the design: scale not given: the % may be the effect or the level left. It counts as functional.

Data set [23] relates to Rattus norvegicus. Description: Diuretic activity in normotensive Wistar rat assessed as decrease in urinary calcium excretion at 10 mg/kg, po administered via gavage for 7 days. It counts as functional, organism-based.
Data set [24] deals with Rattus norvegicus. Description: Diuretic activity in normotensive Wistar rat assessed as urinary calcium excretion at 10 mg/kg, po administered via gavage after 8 hrs (reference value: 5.93 to 6.87 mg/dl). Format: functional.
Data set [25] relates to Rattus norvegicus. The data set can be described thus: Diuretic activity in normotensive Wistar rat assessed as urinary sodium excretion at 10 mg/kg, po administered via gavage after 8 hrs (reference value: 61.82 to 80.81 mmol/L). Format: functional.
Data set [26] has as its system Rattus norvegicus. The data set can be described thus: Renal protective activity in spontaneous hypertensive Wistar rat assessed as reduction in hypertension-induced mesangial space disarrangement at 10 mg/kg, po administered via gavage for 7 days by hematoxylin and eosin staining based microscopic analysis. It counts as functional, organism-based.
The subject of data set [27] is Rattus norvegicus. Description: In vivo antioxidant activity in Wistar rat model of hypertension-induced oxidative stress assessed as reduction in reactive oxygen species generation in renal tissue at 10 mg/kg, po administered via gavage for 7 days by DCFH-DA probe based fluorimetric assay. It counts as functional, organism-based.
Data set [28] has as its system Rattus norvegicus. The data set can be described thus: Diuretic activity in normotensive Wistar rat assessed as urine conductivity at 10 mg/kg, po administered via gavage after 8 hrs (reference value: 19.54 +/- 0.98 mS/cm). Format: functional.
Data set [29] relates to Rattus norvegicus. The data set can be described thus: Diuretic activity in normotensive Wistar rat assessed as increase in urine volume excretion at 0.1 to 1 mg/kg, ip measured up to 8 hrs. It counts as functional, organism-based.
Data set [30] has as its system Rattus norvegicus. Description: Diuretic activity in normotensive Wistar rat assessed as modification of urinary chloride excretion at 0.1 to 1 mg/kg, po administered via gavage measured up to 8 hrs. It counts as functional, organism-based.
For data set [31], the system named is Rattus norvegicus. The data set can be described thus: Diuretic activity in normotensive Wistar rat assessed as modification of urinary sodium excretion at 0.1 to 1 mg/kg, po administered via gavage measured up to 8 hrs. Format: functional, organism-based.
Data set [32] concerns Rattus norvegicus. The data set can be described thus: Diuretic activity in normotensive Wistar rat assessed as modification of urinary potassium excretion at 0.1 to 1 mg/kg, po administered via gavage measured up to 8 hrs. Format: ADME, organism-based. Conditions: in vivo.
In data set [33] the test system is Rattus norvegicus. Description: Diuretic activity in normotensive Wistar rat assessed as modification of urinary calcium excretion at 0.1 to 1 mg/kg, po administered via gavage measured up to 8 hrs. It counts as functional, organism-based.
The test system of data set [34] is Rattus norvegicus. Description: Diuretic activity in normotensive Wistar rat assessed as increase in urine volume excretion at 0.1 to 1 mg/kg, po administered via gavage measured up to 8 hrs. It counts as functional, organism-based.
Data set [35] can be described thus: Anti-urolithic activity in synthetic urine assessed as decrease in absorbance at 10 mg/mL after 60 mins relative to control. It counts as functional. On the set-up: scale not given: the % may be the effect or the level left.
Data set [36] is described as follows: Anti-urolithic activity in synthetic urine assessed as decrease in absorbance at 10 mg/mL after 30 mins relative to control. It counts as functional. More on the design: scale not given: the % may be the effect or the level left.
Data set [37] can be described thus: Anti-urolithic activity in synthetic urine assessed as reduction in CaOx crystal formation at 10 mg/mL in presence of sodium oxalate after 60 mins by Neubauer counting chamber method relative to control. Format: functional. On the set-up: scale not given: the % may be the effect or the level left.
A short description of data set [38]: Anti-urolithic activity in synthetic urine assessed as decrease in absorbance at 10 mg/mL relative to control. On the set-up: scale not given: the % may be the effect or the level left. Format: functional.

Activity calls are given as the source filed them. The calls are words filed in the database; no cut-off is given here.

For `N=C(N)NC(=O)c1nc(Cl)c(N)nc1N` [AMILORIDE], the Activity in the data set on Rattus norvegicus [1] amounted to 170.5 mmol/L; with Rattus norvegicus [2], 5.7 mg/dL; in the data set on Rattus norvegicus [4], 18.23 mS/cm; in the data set with Rattus norvegicus [5], 117.2 mmol/L. For the same compound, the pH in the data set on Rattus norvegicus [3] was determined as 6.29.
As to `NS(=O)(=O)c1cc(C(=O)O)c(NCc2ccco2)cc1Cl` [FUROSEMIDE], the pH in the data set with Rattus norvegicus [6] was found to be 6.12.
On to `NS(=O)(=O)c1cc2c(cc1Cl)NCNS2(=O)=O` [HYDROCHLOROTHIAZIDE], for which the outcome in the data set with Rattus norvegicus [7], in the data set on Rattus norvegicus [8], in the data set with Rattus norvegicus [9], with Rattus norvegicus [10], in the data set on Rattus norvegicus [12] and in the data set on Rattus norvegicus [13] was Active. Moreover, the outcome in the data set with Rattus norvegicus [14], in the data set on Rattus norvegicus [15], in the data set with Rattus norvegicus [16], in the data set on Rattus norvegicus [17], with Rattus norvegicus [23] and in the data set with Rattus norvegicus [26] was Active. Moreover, the result with Rattus norvegicus [27] was Active. Further, the Activity with Rattus norvegicus [11] was 92.9%; in the data set with Rattus norvegicus [18], “Toxic”; in the data set on Rattus norvegicus [19], “Toxic”; in the data set with Rattus norvegicus [20], 279.8 to 286.6 mmol/L; in the data set with Rattus norvegicus [21] it was 41 to 44.8 mmol/L; in the data set with Rattus norvegicus [22], 89.04%. Also, the figures for the Activity with Rattus norvegicus [24], in the data set with Rattus norvegicus [25] and in the data set on Rattus norvegicus [28] were 4.78 to 5.24 mg/dL, 175.7 to 185.7 mmol/L and 23.62 - 27.3 mS/cm, respectively.
On to `O=c1c(O)c(-c2ccc(O)cc2)oc2cc(O)cc(O)c12` [KAEMPFEROL], for which the outcome in the data set with Rattus norvegicus [29], with Rattus norvegicus [30], in the data set on Rattus norvegicus [31], with Rattus norvegicus [33] and in the data set with Rattus norvegicus [34] was inactive. Also, in the data set with Rattus norvegicus [32], the Activity entry was “Non-Toxic”.
As to `O=C([O-])CC(O)(CC(=O)[O-])C(=O)[O-].[K+].[K+].[K+]` [POTASSIUM CITRATE ANHYDROUS], the Activity in data set [35] worked out at 64.85%; in [36], 70.41%; in data set [37], 65.02%; in data set [38], 81.73%.
